# Data reported in patent US11993574B2, “Pyrazole and imidazole compounds for inhibition of IL-17 and RORgamma” (REATA PHARMACEUTICALS, INC., priority 2018, dated 2024).
# Legend:
# Format in all cases: cell-based
# [1] = biological target: T1, Human RAR-related Orphan Receptor Gamma (RORγ) (Homo sapiens, UniProt P51449); assay: RORγ assay (GAL4-RORγ hybrid luciferase reporter, Indigo Biosciences); settings: inverse-agonist activity, GAL4-RORγ reporter cells, 23 hours
# T1 sequence (P51449 269-508 limits assumed): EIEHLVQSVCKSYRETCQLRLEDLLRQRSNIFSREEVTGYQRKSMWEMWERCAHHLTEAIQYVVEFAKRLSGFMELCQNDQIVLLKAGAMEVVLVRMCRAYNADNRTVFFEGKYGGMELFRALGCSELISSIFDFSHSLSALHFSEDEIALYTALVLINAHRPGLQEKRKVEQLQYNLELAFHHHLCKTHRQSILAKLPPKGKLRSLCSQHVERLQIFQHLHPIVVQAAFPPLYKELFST
# Excerpt: B. RORγ Assay and Cell Viability
# The RORγ assay system was purchased from Indigo Biosciences. This nuclear receptor assay utilizes a human cell line that has been engineered to express a hybrid form of the Human RAR-related Orphan Receptor Gamma (RORγ) at high levels. The N-terminal DNA binding domain (DBD) of the native RORγ receptor was substituted with the yeast GAL4-DBD to generate the GAL4-RORγ hybrid nuclear receptor. The reporter cell line is transfected with a plasmid that encodes the beetle luciferase gene under the control of the GAL4 upstream activating sequence (UAS). GAL4 binds to the UAS and increases transcription of downstream target genes. The GAL4-RORγ hybrid is constitutively active; therefore, the principle application of this reporter assay system is to screen test compounds to quantify inverse-agonist activities against human RORγ. Because the ligand binding domain (LBD) of RORγ is identical to the LBD of RORγt, this assay is an accurate surrogate for evaluating activity of experimental ligands against RORγt. To assess the RORγ inverse-agonist activity of the test compounds, reporter cells were plated in white 96-well plates in triplicate and were treated with DMSO (vehicle) or test compound (concentration ranges of 7.8-2000 nM) at 37° C. with 5% CO2 in a humidified atmosphere for 23 hours. After this incubation, luciferin was added to the wells and luciferase activity was determined by measuring the luminescence signal using a BMG Pherastar microplate reader. Viability was determined using the Live Cell Multiplex Assay (Indigo Biosciences). Values from test compound samples were normalized to those from DMSO-treated samples. Data were analyzed using GraphPad Prism version 6.00 for Windows (GraphPad Software, La Jolla Calif. USA). A non-linear regression analysis with log (inhibitor) vs. normalized response using a variable slope was applied to fit the data and determine the IC50 values for inhibition of RORγ and cell viability. Inhibition that is closely correlated with reduced viability is considered to be non-specific.
# [2] = system: Nrf2 transcription factor; assay: AREc32 luciferase reporter assay; settings: Homo sapiens; AREc32 cells, 19 hours; concentration required to increase GST ARE luciferase reporter activity by 2-fold; read-out: NRF2 ARE 2-Fold (EC2×)
# Excerpt: A. AREc32 Luciferase Reporter Assay
# The AREc32 luciferase reporter assay allows for quantitative assessment of the endogenous activity of the Nrt2 transcription factor in cultured mammalian cells. AREc32 cells are derived from MCF-7 human breast carcinoma cells that were stably transfected with a reporter construct that contains the firefly luciferase gene located downstream of eight copies of the rat GSTA2 antioxidant response element (ARE) sequence (Wang et al., 2006; Concept Life Sciences Integrated Discovery and Development Services Ltd (CLSIDDS)). Active Nrf2 binds to the ARE sequences and increases expression of the firefly luciferase gene. To assess the Nrf2-activating potential of the test compounds, AREc32 cells were plated in black […] plates at a density of 20,000 cells per well in triplicate in DMEM+10% FBS+0.8 mg/mL Geneticin and incubated at 37° C. with 5% CO2 in a humidified atmosphere. The next day, cells were treated with DMSO (vehicle) or test compound (concentration ranges of 0.4-200 nM or 3.9-2000 nM) for 19 hours. Luciferase activity was determined using the ONE-Glo Luciferase assay (Promega). The luminescence signal was measured on a BMG Pherastar microplate reader. The mean luminescence value from test compound-treated wells was normalized to that from DMSO-treated wells and was represented as fold-induction. Data were analyzed using GraphPad Prism version 6.00 for Windows, GraphPad Software, La Jolla Calif. USA. A non-linear regression curve with log (agonist) vs. response using a variable slope was used to fit the data. Where applicable, a maximum threshold value of 50-fold over DMSO was set. EC2× values were interpolated from the curve. EC2× corresponds to the concentration of test compound required to increase GST ARE Luciferase reporter activity by 2-fold.
# IL-17A = assay: IL-17 release from differentiated primary human T-cells (IL-17A HTRF assay); settings: primary human CD4+ T cells differentiated into Th17 cells, 45-hour incubation, IL-17A in supernatant; read-out: hIL17 IC50
# Experimental: C. IL-17 Release from Differentiated Primary Human T-Cells and Cell Viability
# Primary human cryopreserved CD4+ T Cells (Lonza) were thawed according to the manufacturer's recommendations and plated either in Lymphocyte Growth Medium-3 (LGM-3) or X-VIVO 20 media (Lonza) in 96-well tissue culture plates at a density of ˜2×10^5 cells per well, and allowed to recover for approximately 4 hours at 37° C. with 5% CO2 in a humidified atmosphere. After the recovery step, DMSO (vehicle) or test compound at doses ranging from 2 to 500 nM or 4 to 1000 nM in a three-fold dilution series was added to the cells. Three replicate wells were tested for each treatment condition. Final DMSO concentration in each well was 0.1%. Immediately after treatment, CD4+ T cells were activated by adding Dynabeads Human T-Activator CD3/CD28 (Life Technologies; bead-to-cell ratio of 1:2.5) and differentiated into Th17 cells by adding a mixture of the following cytokines: transforming growth factor-β (TGF-β, 5 ng/mL), IL-6 (20 ng/mL), IL-23 (20 ng/mL), and IL-1β (10 ng/mL). Undifferentiated control cells received only cytokine IL-2 (50 ng/mL). All human recombinant cytokines were purchased from R&D Systems. Following a 45-hour incubation at 37° C. with 5% CO2 in a humidified atmosphere, the plates were centrifuged for 3 minutes at 250×g, and half of the supernatant was transferred to anew plate to be used in the IL-17A assay (see below). Cell viability was assessed in the original plate using the CyQuant Direct Assay (Life Technologies). CyQuant reagent (an amount equal to 10% of remaining media volume) was added to the wells, and the plates were then incubated at 37° C. for 75 min. Fluorescence was read on a SpectraMax M2e spectrophotometer at 480 nm (excitation) and 535 nm (emission) wavelengths. CyQuant values from test compound samples were normalized to those from DMSO-treated samples. The concentration of IL-17A in the supernatant was measured using the Homogeneous Time-Resolved Fluorescence (HTRF) assay (Cisbio Bioassays) according to the manufacturer's protocol. The assay was performed at room temperature in low volume, solid white 384-well plates (Greiner Bio-One). Samples and standards (serially-diluted human recombinant IL-17A (0 to 5,000 pg/mL concentration range; Cisbio Bioassays) were incubated with the anti-human IL-17A antibody conjugates (the HTRF donor and acceptor pair) for 16 hours and fluorescence was measured using a Pherastar FS microplate reader (BMG Labtech) in the HTRF mode (excitation at 337 nm and emission at 665 nm and 620 nm). IL-17A levels were assessed in duplicate aliquots of supernatant from each well resulting in a total of six readings per test condition. The 665 nm/620 nm signal ratio was calculated and the concentration of IL-17A in each sample was determined by interpolation from the standard curve. The amount of IL-17A from test compound treated samples were normalized to that of the vehicle-treated samples, set to 100%. Data were analyzed using GraphPad Prism (GraphPad Software, La Jolla California USA). Concentrations of test compound were transformed by taking the logarithm of each concentration used. The IC50 values for compound-mediated reduction in IL-17A levels and cell viability were determined by non-linear regression analysis using the log(inhibitor) vs. normalized response with variable slope equation. Inhibition that is closely correlated with reduced viability is considered to be non-specific.
SMILES,IC50 [1],EC (2-fold) [2],IC50 (IL-17A)
C[C@H]1C(=O)C(C#N)=C[C@@]2(C)c3nc(-c4cccc(-c5cncc(F)c5)c4)n(-c4cccc(F)c4)c3CC[C@H]12 [T148],149 nM,0.566 µM,86 nM
C[C@H]1C(=O)C(C#N)=C[C@@]2(C)c3nc(C4CCOCC4)n(-c4cccc(F)c4)c3CC[C@H]12 [T130],345 nM,1.78 µM,273 nM
C[C@H]1C(=O)C(C#N)=C[C@@]2(C)c3c(c(-c4ccccc4F)nn3-c3nc4ccc(Cl)cc4s3)CC[C@H]12 [T89],251 nM,0.482 µM,13 nM
C[C@H]1C(=O)C(C#N)=C[C@@]2(C)c3nc(-c4cccc(-c5ccccc5)c4)n(-c4cccc(F)c4)c3CC[C@H]12 [T128],158 nM,0.818 µM,117 nM
C[C@H]1C(=O)C(C#N)=C[C@@]2(C)c3c(c(-c4ccccn4)nn3-c3ccc(-c4ccccc4)cc3)CC[C@H]12 [T81],67 nM,0.243 µM,30 nM
C[C@H]1C(=O)C(C#N)=C[C@@]2(C)c3c(c(-c4ccccc4F)nn3-c3ccc(-c4cncnc4)cc3)CC[C@H]12 [T82],44 nM,0.208 µM,63 nM
C[C@H]1C(=O)C(C#N)=C[C@@]2(C)c3nn(-c4ccc(-c5ccccc5)cc4)c(CC4CCC4)c3CC[C@H]12 [T119],158 nM,1.16 µM,43 nM
Cc1noc(-c2nn(-c3ccc(-c4cccnc4)cc3)c3c2CC[C@@H]2[C@@H](C)C(=O)C(C#N)=C[C@@]32C)n1 [T109],89 nM,0.543 µM,163 nM
CC(C)c1cccc(-c2nc3c(n2-c2cccc(F)c2)CC[C@@H]2[C@@H](C)C(=O)C(C#N)=C[C@@]32C)c1 [T138],284 nM,0.941 µM,201 nM
Cc1ccccc1-n1nc(-c2ccccc2)c2c1[C@]1(C)C=C(C#N)C(=O)[C@H](C)[C@H]1CC2 [T17],77 nM,0.105 µM,94 nM
C[C@H]1C(=O)C(C#N)=C[C@@]2(C)c3nn(-c4ccc(-c5ccccc5)cc4)c(-c4ccncc4)c3CC[C@H]12 [T124],123 nM,0.651 µM,77 nM
C[C@H]1C(=O)C(C#N)=C[C@@]2(C)c3c(c(-c4ccccc4)nn3-c3cccc4ccccc34)CC[C@H]12 [T23],118 nM,0.19 µM,89 nM
Cc1ccc(-c2nn(-c3ccc(-c4ccccc4)cc3)c3c2CC[C@@H]2[C@@H](C)C(=O)C(C#N)=C[C@@]32C)cc1 [T69],142 nM,0.38 µM,12 nM
C[C@H]1C(=O)C(C#N)=C[C@@]2(C)c3c(c(-c4ccncn4)nn3-c3ccc(-c4ccnc(CF)c4)cc3)CC[C@H]12 [T54],52 nM,0.355 µM,33 nM
C[C@H]1C(=O)C(C#N)=C[C@@]2(C)c3c(c(-c4ccccc4F)nn3-c3nnc(-c4ccccc4)n3C)CC[C@H]12 [T86],351 nM,1.48 µM,88 nM
C[C@H]1C(=O)C(C#N)=C[C@@]2(C)c3nn(Cc4ccccc4)c(-c4ccccc4)c3CC[C@H]12 [T4],140 nM,0.914 µM,223 nM
C[C@H]1C(=O)C(C#N)=C[C@@]2(C)c3c(c(-c4ccncn4)nn3-c3ccc(-c4ccnc(CO)c4)cc3)CC[C@H]12 [T55],174 nM,0.609 µM,149 nM
CC(C)c1ccc(-c2nc3c(n2-c2cnn(C)c2)CC[C@@H]2[C@@H](C)C(=O)C(C#N)=C[C@@]32C)cc1 [T156],117 nM,1.16 µM,128 nM
CC(C)c1ccc(-c2nc3c(n2-c2cccnc2)CC[C@@H]2[C@@H](C)C(=O)C(C#N)=C[C@@]32C)cc1 [T153],334 nM,1.25 µM,108 nM
C[C@H]1C(=O)C(C#N)=C[C@@]2(C)c3nc(-c4cccc(N5CCOCC5)c4)n(-c4cccc(F)c4)c3CC[C@H]12 [T143],95 nM,0.643 µM,132 nM
